{"source": "patent US4540572A", "about": "“Gel-like ointment containing indometacin” (Mepha AG, priority 1983, dated 1985)", "origin": "cited, not measured here", "tested_on": "human skin", "conditions": "from the conventional ointment bases"}
{"smiles": "COc1ccc2c(c1)c(CC(=O)O)c(C)n2C(=O)c1ccc(Cl)cc1", "note": "[indometacin]", "values": [{"measurement": "absorption through the human skin", "value": "lack of its absorption"}]}
